# Experimental data: patent US11439607B2 (Paracelsus Neuroscience I, LLC, priority 2016, dated 2022)
# Like-named read-outs stand apart in the source and are kept apart here.
# How the values were obtained:
# Rat primary microglia = assay: Microglial IL-1β release (LPS priming, BzATP); format: cell-based
# Procedure: Rat primary microglia were primed with 3 EU/mL of ultra-pure Lipopolysaccharide (control standard endotoxin (CSE) Associates of Cape Cod, Falmouth, Mass.). […] Cell free supernatants were assayed for IL-1β using a custom rat cytokine assay (N451A-1; MesoScale Discovery, Rockville, Md.). IC50S were determined using Prism (Graphpad, San Diego, Calif.)
# After 24 hours, media was assayed for nitrite (stable metabolite of NO). […] Primary rat cortical microglia were also treated with LPS (3 EU/ml, 3 hours) to stimulate the production of pro-IL-1β.
# Kaolin model = assay: Kaolin - Gait score; format: in vivo, rodent; settings: Senicapoc 100 mg/kg PO, 240 min after treatment
# Procedure: Depending on the test, the percentage of activity was calculated from the mean value of the vehicle-treated animals and compared to naïve animals, control paw or cut-off value.
compound,measurement,setting,value
NC(=O)C(c1ccccc1)(c1ccc(F)cc1)c1ccc(F)cc1 [Senicapoc],IC50,"Rat primary microglia; FIG. 2B legend, LPS 3EU/ml 24 hours, n=3, read-out: IC50, inhibition of IL-1β release from primary microglia (FIG. 2B legend)",1.3 nM
same,IC50,"Rat primary microglia; LPS 3 EU/ml priming, BzATP 1 mM, read-out: IC50, inhibition of IL-1β release from primary microglia",15 nM
same,% of activity vs. vehicle,Kaolin model,29%
